Results taken from ChEMBL document CHEMBL1909046, “DrugMatrix in vitro pharmacology data”.

Legend:
[1] = target: Mitogen-activated protein kinase 14 (Homo sapiens, UniProt Q16539); set-up: species or system Escherichia coli;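 also: inhibition of p38alpha enzyme activity in a biochemical kinase assay, with myelin basic protein serving as substrate; in other assays of this panel Not Active means under 50% inhibition at 10 µM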
[2] = DRUGMATRIX: Platelet-Derived Growth Factor (PDGF) radioligand binding (ligand: [125I] PDGF); format: cell-based; conditions: nih3t3; Not Active = under 50% inhibition at 10 µM
[3] = target: T1, C-C chemokine receptor type 4 (Homo sapiens, UniProt P51679); format: cell membranes, Membrane; conditions: chem-1; also: in other assays of this panel Not Active means under 50% inhibition at 10 µM
T1 sequence (P51679 whole entry): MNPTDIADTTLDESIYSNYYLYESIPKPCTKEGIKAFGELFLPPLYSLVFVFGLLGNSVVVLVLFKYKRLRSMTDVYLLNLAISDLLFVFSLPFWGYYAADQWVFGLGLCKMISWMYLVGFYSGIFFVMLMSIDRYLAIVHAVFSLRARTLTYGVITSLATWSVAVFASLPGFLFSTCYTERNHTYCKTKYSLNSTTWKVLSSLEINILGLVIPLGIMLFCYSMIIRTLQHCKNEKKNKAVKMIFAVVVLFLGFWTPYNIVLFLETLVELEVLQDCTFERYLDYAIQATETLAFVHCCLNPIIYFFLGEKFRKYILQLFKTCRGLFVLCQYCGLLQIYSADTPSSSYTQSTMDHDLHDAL

[4] = target: Tyrosine-protein kinase Lck (Homo sapiens, UniProt P06239); assay: DRUGMATRIX: Protein Tyrosine Kinase, LCK enzyme inhibition (substrate: Poly(Glu:Tyr)); format: cell-based, Insect cells; conditions: insect cells; Not Active = under 50% inhibition at 10 µM
[5] = DRUGMATRIX: Sodium/nucleoside co-transporter radioligand binding (ligand: nitrobenzylthioinosine); format: cell membranes, Cavia porcellus, Dunkin-Hartley, Cerebral cortex, Membrane; conditions: Not Active = under 50% inhibition at 10 µM
Carbonic anhydrase 2 = Carbonic anhydrase 2 (Homo sapiens, UniProt P00918); assay: DRUGMATRIX: Carbonic Anhydrase II enzyme inhibition (substrate: 4-Nitrophenyl acetate (4-NPA)); format: tissue-based; conditions: erythrocyte; Not Active = under 50% inhibition at 10 µM
[6] = target: T2, 5-hydroxytryptamine receptor 2C (Homo sapiens, UniProt P28335); assay: DRUGMATRIX: Serotonin (5-Hydroxytryptamine) 5-HT2C radioligand binding (ligand: [3H] Mesulergine); format: cell membranes, CHO-K1, Membrane; conditions: Not Active = under 50% inhibition at 10 µM; for Ki: read-out: Ki
T2 sequence (P28335 whole entry): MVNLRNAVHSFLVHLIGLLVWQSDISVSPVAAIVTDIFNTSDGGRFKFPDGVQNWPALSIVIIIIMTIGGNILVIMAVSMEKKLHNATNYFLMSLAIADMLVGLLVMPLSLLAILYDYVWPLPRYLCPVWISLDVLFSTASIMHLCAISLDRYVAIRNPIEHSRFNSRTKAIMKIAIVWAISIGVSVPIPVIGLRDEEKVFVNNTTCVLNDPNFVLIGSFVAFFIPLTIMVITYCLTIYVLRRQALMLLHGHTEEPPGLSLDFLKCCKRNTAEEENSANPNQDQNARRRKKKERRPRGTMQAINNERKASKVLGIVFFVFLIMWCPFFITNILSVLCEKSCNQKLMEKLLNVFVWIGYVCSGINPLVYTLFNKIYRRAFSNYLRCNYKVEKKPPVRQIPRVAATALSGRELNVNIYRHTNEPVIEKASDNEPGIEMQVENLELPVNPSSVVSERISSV

Sequence of Tyrosine-protein kinase Lck (P06239 whole entry): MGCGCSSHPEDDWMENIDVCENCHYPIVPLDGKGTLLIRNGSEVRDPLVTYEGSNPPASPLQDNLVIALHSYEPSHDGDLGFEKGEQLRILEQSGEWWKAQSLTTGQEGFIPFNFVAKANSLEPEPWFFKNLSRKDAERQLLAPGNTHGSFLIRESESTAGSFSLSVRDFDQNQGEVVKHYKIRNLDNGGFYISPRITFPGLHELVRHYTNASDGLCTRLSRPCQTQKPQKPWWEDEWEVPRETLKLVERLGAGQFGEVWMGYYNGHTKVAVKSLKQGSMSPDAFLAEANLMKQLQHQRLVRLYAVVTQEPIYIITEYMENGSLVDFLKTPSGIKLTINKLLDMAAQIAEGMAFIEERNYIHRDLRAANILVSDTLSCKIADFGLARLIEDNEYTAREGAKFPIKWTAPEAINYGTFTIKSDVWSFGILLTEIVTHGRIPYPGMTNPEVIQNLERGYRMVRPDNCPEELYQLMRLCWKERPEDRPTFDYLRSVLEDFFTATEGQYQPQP
Sequence of Mitogen-activated protein kinase 14 (Q16539 whole entry): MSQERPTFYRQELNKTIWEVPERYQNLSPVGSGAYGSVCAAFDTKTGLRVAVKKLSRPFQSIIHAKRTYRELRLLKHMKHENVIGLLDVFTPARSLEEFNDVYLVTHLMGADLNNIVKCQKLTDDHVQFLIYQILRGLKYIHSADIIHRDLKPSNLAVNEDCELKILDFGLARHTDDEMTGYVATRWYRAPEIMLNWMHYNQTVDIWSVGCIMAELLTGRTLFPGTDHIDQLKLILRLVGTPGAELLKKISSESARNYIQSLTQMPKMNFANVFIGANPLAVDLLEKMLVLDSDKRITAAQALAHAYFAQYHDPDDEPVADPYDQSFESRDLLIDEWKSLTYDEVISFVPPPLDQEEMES

Compound	IC50 [1]	IC50 [2]	Ki [2]	IC50 [3]	IC50 [4]	IC50 [5]	Ki [5]	IC50 (Carbonic anhydrase 2)	IC50 ([6]; cho-k1)	IC50 ([6]; read-out: IC50)	Ki [6]
CCC(=O)O[C@]1(C(=O)CCl)[C@@H](C)C[C@H]2[C@@H]3CCC4=CC(=O)C=C[C@]4(C)[C@@]3(F)[C@@H](O)C[C@@]21C [CLOBETASOL PROPIONATE]	Not Active	Not Active	Not Active	Not Active	Not Active	Not Active	Not Active	Not Active	Not Active	–	–
O=C1CN=C(c2ccccc2Cl)c2cc([N+](=O)[O-])ccc2N1 [CLONAZEPAM]	Not Active	Not Active	Not Active	Not Active	Not Active	Not Active	Not Active	Not Active	Not Active	–	–
Nc1ccn([C@@H]2O[C@H](CO)[C@@H](O)[C@@H]2O)c(=O)n1 [CYTARABINE]	Not Active	Not Active	Not Active	Not Active	Not Active	Not Active	Not Active	Not Active	Not Active	–	–
C[C@@H]1C[C@H]2[C@@H]3CCC4=CC(=O)C=C[C@]4(C)[C@@]3(F)[C@@H](O)C[C@]2(C)[C@H]1C(=O)CO [DESOXIMETASONE]	Not Active	Not Active	Not Active	Not Active	Not Active	Not Active	Not Active	Not Active	Not Active	–	–
C[C@@H]1C[C@H]2[C@@H]3CCC4=CC(=O)C=C[C@]4(C)[C@@]3(F)[C@@H](O)C[C@]2(C)[C@@]1(O)C(=O)CO [DEXAMETHASONE]	Not Active	Not Active	Not Active	Not Active	Not Active	Not Active	Not Active	Not Active	Not Active	–	–
CN(C)CC[C@@H](c1ccc(Cl)cc1)c1ccccn1 [DEXCHLORPHENIRAMINE]	Not Active	Not Active	Not Active	Not Active	Not Active	Not Active	Not Active	Not Active	–	2320 nM	1220 nM
C[C@@H]1CC[C@@]2(OC1)O[C@H]1[C@@H](O)[C@H]3[C@@H]4CC[C@H]5C[C@@H](O[C@@H]6O[C@H](CO)[C@H](O[C@@H]7O[C@H](CO)C(O)[C@H](O[C@@H]8OC[C@@H](O)[C@H](O)[C@H]8O)[C@H]7O[C@@H]7O[C@H](CO)[C@H](O)[C@H](O[C@@H]8O[C@H](CO)[C@@H](O)[C@H](O)[C@H]8O)[C@H]7O)[C@H](O)[C@H]6O)[C@H](O)C[C@]5(C)[C@H]4CC[C@]3(C)[C@H]1[C@@H]2C (stereo not given in full) [DIGITONIN]	Not Active	Not Active	Not Active	Not Active	Not Active	Not Active	Not Active	Not Active	Not Active	–	–
OC(CCCN1CCCCC1)(c1ccccc1)c1ccccc1 [DIPHENIDOL]	Not Active	Not Active	Not Active	Not Active	Not Active	Not Active	Not Active	Not Active	Not Active	–	–
C[C@H]1O[C@@H](n2cc(F)c(=O)[nH]c2=O)[C@H](O)[C@@H]1O [DOXIFLURIDINE]	Not Active	Not Active	Not Active	Not Active	Not Active	Not Active	Not Active	Not Active	Not Active	–	–
Cn1c(=O)c2c(ncn2CC(O)CO)n(C)c1=O (stereo not given) [DYPHYLLINE]	Not Active	Not Active	Not Active	Not Active	Not Active	Not Active	Not Active	Not Active	Not Active	–	–
CC[C@H]1CN2CCc3cc(OC)c(OC)cc3[C@@H]2C[C@@H]1C[C@H]1NCCc2cc(OC)c(OC)cc21 [EMETINE]	Not Active	Not Active	Not Active	Not Active	Not Active	Not Active	Not Active	Not Active	Not Active	–	–
C[C@@H](CO)NC(=O)[C@@H]1C=C2c3cccc4[nH]cc(c34)C[C@H]2N(C)C1 [ERGONOVINE]	Not Active	Not Active	Not Active	Not Active	Not Active	Not Active	Not Active	Not Active	–	21 nM	11 nM
COC(=O)CCc1ccc(OCC(O)CNC(C)C)cc1 (stereo not given) [ESMOLOL]	Not Active	Not Active	Not Active	Not Active	Not Active	Not Active	Not Active	Not Active	Not Active	–	–
CCC1(C)CC(=O)NC1=O (stereo not given) [ETHOSUXIMIDE]	Not Active	Not Active	Not Active	Not Active	Not Active	Not Active	Not Active	Not Active	Not Active	–	–
C#C[C@]1(OC(C)=O)CC[C@H]2[C@@H]3CCC4=C[C@@H](OC(C)=O)CC[C@@H]4[C@H]3CC[C@@]21C [ETHYNODIOL DIACETATE]	Not Active	Not Active	Not Active	Not Active	Not Active	Not Active	Not Active	Not Active	Not Active	–	–
COc1cc([C@@H]2c3cc4c(cc3[C@@H](O[C@@H]3O[C@@H]5CO[C@@H](C)O[C@H]5[C@H](O)[C@H]3O)[C@H]3COC(=O)[C@H]23)OCO4)cc(OC)c1O [ETOPOSIDE]	Not Active	Not Active	Not Active	Not Active	Not Active	Not Active	Not Active	Not Active	Not Active	–	–
C=CCc1ccc(O)c(OC)c1 [EUGENOL]	Not Active	Not Active	Not Active	Not Active	Not Active	Not Active	Not Active	Not Active	Not Active	–	–
CC(C(=O)O)c1cccc(Oc2ccccc2)c1 (stereo not given) [FENOPROFEN]	Not Active	Not Active	Not Active	Not Active	Not Active	Not Active	Not Active	Not Active	Not Active	–	–
CC(C)(C)NC(=O)[C@H]1CC[C@H]2[C@@H]3CC[C@H]4NC(=O)C=C[C@]4(C)[C@H]3CC[C@]12C [FINASTERIDE]	Not Active	Not Active	Not Active	Not Active	Not Active	Not Active	Not Active	Not Active	Not Active	–	–
COc1ccc2c3c1O[C@H]1C[C@@H](O)C=C[C@@]31CCN(C)C2 [GALANTAMINE]	Not Active	Not Active	Not Active	Not Active	Not Active	Not Active	Not Active	Not Active	Not Active	–	–
Nc1ccn([C@@H]2O[C@H](CO)[C@@H](O)C2(F)F)c(=O)n1 [GEMCITABINE]	Not Active	Not Active	Not Active	Not Active	Not Active	Not Active	Not Active	Not Active	Not Active	–	–
CC(C)=CCC/C(C)=C/CO [GERANIOL]	Not Active	Not Active	Not Active	Not Active	Not Active	Not Active	Not Active	Not Active	Not Active	–	–
N=C(N)NC(=O)Cc1c(Cl)cccc1Cl [GUANFACINE]	Not Active	Not Active	Not Active	Not Active	Not Active	Not Active	Not Active	Not Active	–	1450 nM	761 nM
